From patent US7662781B2, “Immunopotentiating agent” (ECI, Inc., priority 2005, dated 2010)

How the values were obtained:
[1] = test system: Lewis lung carcinoma (3LL); experiment: Lung metastasis system of intravenously injected 3LL; type: in vivo, C57BL/6 mice; settings: 25 mg/mouse, twice a week
Description: By using a lung metastasis system of Lewis lung carcinoma (3LL), the tumor metastasis inhibition effect of eMIP was evaluated. Female C57BL/6 mice aged 7 weeks were employed. 10^6 3LL cells were injected into each animal via the tail vein. After 25 days, the lungs were taken out, weighed and fixed with Bouin' solution. Then, cancer tissues metastasized into the lungs were counted under a stereoscopic microscope. 30 minutes after the 3LL transplantation, eMIP was injected as the first administration followed by continuous administration once a week for 4 weeks. In the system wherein the administration was initiated 7 days after the 3LL transplantation, the effect of eMIP was examined. 5Fu employed as a control was administered twice a week.

[2] = test system: dendritic cell precursors; settings: Yoneyama 2001; Zhang 2004; cited from earlier work

| Molecule | inhibition rate of metastasis into the lungs [1] [%] | mobilization of dendritic cell precursors in the blood [2] |
| --- | --- | --- |
| O=c1[nH]cc(F)c(=O)[nH]1 [5Fu] | 78 |  |
| MIP-1α: molecule of about 70 amino acids belonging to the C—C chemokine family, ligand for CCR1 and CCR5 (protein, UniProt P10147 24-92, looked up) C-C motif chemokine 3: SLAADTPTACCFSYTSRQIPQNFIADYFETSSQCSKPGVIFLTKRSRQVCADPSEEWVQKYVSDLELSA |  | several ten-fold |
